Data: patent publication US12144802B2, “Pharmaceutical compositions of roflumilast and solvents capable of dissolving high amounts of the drug” (ARCUTIS BIOTHERAPEUTICS, INC., priority 2022, dated 2024)

Test: solubility (saturation concentration) of roflumilast in solvent-water blends, HPLC after 0.2 micron filtration
Type: physicochemical
Conditions: controlled room temperature
Experimental: The solubility of roflumilast in various solvents was determined. Compositions of roflumilast and the solvents identified in Table 1 were prepared. To prepare the compositions, 10 g of a solvent-water blend was added into a 20 mL clear glass vial. 0.05 g of the active pharmaceutical ingredient (API), roflumilast, was added into the vial. The vial was mixed on a jar roller at controlled room temperature at an appropriate speed. A visual evaluation was performed after shaking. If all of the API was dissolved, an additional 0.05 g of API was added into the vial and further mixing was performed. If any API remained undissolved, the total amount of API added to the vial was recorded. The visual inspection was repeated as necessary until no more API could be dissolved. For each solvent, the solubility was determined by syringe filtering (0.2 micron filter) the solvent blend to remove undissolved roflumilast and determining the amount of dissolved roflumilast using HPLC analysis. Composition of the solvent blends were an equal molar solvent-water mixtures, as well as a 1:2 (weight:weight) solvent-water blends. Transcutol P, which is described for use with roflumilast in U.S. Patent Publication No. 2019/009133, was used as a reference point in Example 1.

μg roflumilast per mL blend (saturation concentration) (1:2 solvent to water (weight:weight), reference solvent Transcutol P (111-90-0), 5.00 g solvent, 10.01 g water): 45.01 µg/mL
μg roflumilast per mL blend (saturation concentration) (1:2 solvent to water (weight:weight), solvent 1,2-hexanediol (6920-22-5), 5.02 g solvent, 10.02 g water): 293.26 µg/mL
μg roflumilast per mL blend (saturation concentration) (1:2 solvent to water (weight:weight), solvent 1,2-pentanediol (3174-67-2), 5.01 g solvent, 10.04 g water): 139.71 µg/mL
μg roflumilast per mL blend (saturation concentration) (1:2 solvent to water (weight:weight), solvent 1,3-butylene glycol (107-88-0), 5.01 g solvent, 10.00 g water): 11.27 µg/mL
μg roflumilast per mL blend (saturation concentration) (1:2 solvent to water (weight:weight), solvent 1,3-propanediol (504-63-2), 5.01 g solvent, 10.02 g water): 6.23 µg/mL
μg roflumilast per mL blend (saturation concentration) (1:2 solvent to water (weight:weight), solvent 1,6-hexanediol (629-11-8), 5.01 g solvent, 10.02 g water): 112.31 µg/mL
μg roflumilast per mL blend (saturation concentration) (1:2 solvent to water (weight:weight), solvent 5-methyloxolan-2-one (108-29-2), 5.01 g solvent, 10.01 g water): 392.14 µg/mL
μg roflumilast per mL blend (saturation concentration) (1:2 solvent to water (weight:weight), solvent Pantolactone (599-04-2), 5.03 g solvent, 10.02 g water): 62.04 µg/mL
μg roflumilast per mL blend (saturation concentration) (1:2 solvent to water (weight:weight), solvent dipropylene glycol (25265-71-8), 5.01 g solvent, 10.01 g water): 34.44 µg/mL
μg roflumilast per mL blend (saturation concentration) (1:2 solvent to water (weight:weight), solvent propylene glycol methyl ethyl acetate (107-98-2), 5.01 g solvent, 10.03 g water): 65.80 µg/mL
μg roflumilast per mL blend (saturation concentration) (equal molar solvent-water blend, reference solvent Transcutol P (111-90-0), 2.00 g solvent, 14.81 g water): 2.55 µg/mL
μg roflumilast per mL blend (saturation concentration) (equal molar solvent-water blend, solvent 1,2-hexanediol (6920-22-5), 2.00 g solvent, 13.24 g water): 37.67 µg/mL
μg roflumilast per mL blend (saturation concentration) (equal molar solvent-water blend, solvent 1,2-pentanediol (3174-67-2), 2.21 g solvent, 12.80 g water): 4.16 µg/mL
μg roflumilast per mL blend (saturation concentration) (equal molar solvent-water blend, solvent 1,3-butylene glycol (107-88-0), 2.52 g solvent, 12.51 g water): 1.46 µg/mL
μg roflumilast per mL blend (saturation concentration) (equal molar solvent-water blend, solvent 1,3-propanediol (504-63-2), 3.00 g solvent, 12.60 g water): 2.77 µg/mL
μg roflumilast per mL blend (saturation concentration) (equal molar solvent-water blend, solvent 1,6-hexanediol (629-11-8), 2.00 g solvent, 13.11 g water): 5.81 µg/mL
μg roflumilast per mL blend (saturation concentration) (equal molar solvent-water blend, solvent 5-methyloxolan-2-one (108-29-2), 2.51 g solvent, 14.03 g water): 7.80 µg/mL
μg roflumilast per mL blend (saturation concentration) (equal molar solvent-water blend, solvent Pantolactone (599-04-2), 2.00 g solvent, 14.41 g water): 0.96 µg/mL
μg roflumilast per mL blend (saturation concentration) (equal molar solvent-water blend, solvent dipropylene glycol (25265-71-8), 2.02 g solvent, 14.84 g water): 2.27 µg/mL
μg roflumilast per mL blend (saturation concentration) (equal molar solvent-water blend, solvent propylene glycol methyl ethyl acetate (107-98-2), 2.50 g solvent, 12.52 g water): 6.04 µg/mL
Structure (SMILES): O=C(Nc1c(Cl)cncc1Cl)c1ccc(OC(F)F)c(OCC2CC2)c1 [roflumilast, N-(3,5-dichloropyrid-4-yl)-3-cyclopropylmethoxy-4-difluoromethoxybenzamide]
μg roflumilast per mL blend (saturation concentration) (1:2 solvent to water (weight:weight), solvent 2-(2-butoxy-ethoxy)ethanol (112-34-5), 5.01 g solvent, 10.01 g water): 802.24 µg/mL
μg roflumilast per mL blend (saturation concentration) (equal molar solvent-water blend, solvent 2-(2-butoxy-ethoxy)ethanol (112-34-5), 1.50 g solvent, 13.50 g water): 2.29 µg/mL
